Source: PubChem BioAssay (NCI)
“And” between values parts separate entries of the source, which are not always exact repeats. Equal entries are not always repeated.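 Protocol summary: plate cells (96-well), add compound at 5 concentrations, incubate 48 h, interpolate endpoints linearly. Here, GI50 denotes the concentration required for 50% inhibition of growth. At the TGI there is no net growth.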

How the values were obtained:
Experiment in all cases: NCI anticancer screen, dose series, 48 h
EKVX NSCLC = tested on: EKVX NSCLC
LOX IMVI melanoma = tested on: LOX IMVI melanoma
SK-MEL-2 melanoma = tested on: SK-MEL-2 melanoma
TK-10 renal = tested on: TK-10 renal
U251 CNS = tested on: U251 CNS
UO-31 renal = tested on: UO-31 renal
MDA-MB-435 = tested on: MDA-MB-435
NCI/ADR-RES ovarian = tested on: NCI/ADR-RES ovarian
PC-3 prostate = tested on: PC-3 prostate
T-47D breast = tested on: T-47D breast

Compound	TGI (EKVX NSCLC)	TGI (LOX IMVI melanoma)	TGI (SK-MEL-2 melanoma)	TGI (TK-10 renal) [µM]	TGI (U251 CNS)	TGI (UO-31 renal)	GI50 (LOX IMVI melanoma)	GI50 (MDA-MB-435)	TGI (MDA-MB-435)	GI50 (NCI/ADR-RES ovarian) [µM]	TGI (NCI/ADR-RES ovarian) [µM]	GI50 (PC-3 prostate) [µM]	TGI (PC-3 prostate)	GI50 (SK-MEL-2 melanoma)	GI50 (T-47D breast) [µM]	TGI (T-47D breast) [µM]	GI50 (TK-10 renal)	GI50 (U251 CNS)	GI50 (UO-31 renal)	GI50 (EKVX NSCLC) [µM]
CC1(Sc2ccccc2)CN(Cc2ccccc2)C1=O (stereo not given)	> 100 µM	> 100 µM	> 100 µM	> 100	> 100 µM	> 100 µM	–	–	–	–	–	–	–	–	–	–	–	–	–	–
CCOC(=O)C=C1CCN(C(=O)c2ccccc2)CC1	> 100 µM	> 100 µM	0.284 µM	> 100	> 100 µM	> 100 µM	–	–	–	–	–	–	–	–	–	–	–	–	–	–
COC(=O)[C@@H]1CSC(=S)N1C(=O)C[C@H]1CC=CC[C@H]1CC(=O)Sc1ccccc1	32.2 µM	33.1 µM	52 µM	–	32.4 µM	26.8 µM	–	–	–	–	–	–	–	–	–	–	–	–	–	–
C=C1C(=O)OC2CC3(C)C=CC(=O)C(=C)C3CC12 (stereo not given)	6.85 µM	1.86 µM	3.13 µM	4.79	13.5 µM	3.13 µM	–	–	–	–	–	–	–	–	–	–	–	–	–	–
OCC1OC(n2ccc3c2ncn2ncnc32)C(O)C1O (stereo not given)	–	1.76 µM	> 100 µM	> 100	> 100 µM	> 100 µM	0.29 µM	6.5 µM	> 100 µM	0.712	63.7	0.459	22.8 µM	46.2 µM	0.273	5.54	3.81 µM	47.7 µM	2.74 µM	–
CCOP(=O)(OCC)C1CCCCOC1=O (stereo not given)	> 100 µM	40 µM	> 100 µM	> 100	> 100 µM	> 100 µM	–	–	–	–	–	–	–	–	–	–	–	–	–	–
COc1cc(Cn2cc3c(c2)-c2oncc2CC3)cc(OC)c1OC	> 65.7 µM	> 100 µM	79.3 µM	> 100	> 100 µM	15.1 µM	0.0716 µM	< 0.0107 µM	< 0.0225 µM	0.0268	–	0.0526	> 100 µM	7.2 µM	–	–	5.77 µM	0.0387 µM	0.0594 µM	0.0467
Nc1ncnc2sc(=S)c3c(c12)CCC3	58.8 µM	> 100 µM	> 100 µM	> 100	> 100 µM	> 100 µM	31.8 µM	46.9 µM	> 100 µM	30.1	> 100	32.1	> 100 µM	81.8 µM	–	–	39.6 µM	45.8 µM	43.8 µM	18.9
COc1cc2cc(Oc3ccc(NC(=O)Nc4ccc(Cl)c(C(F)(F)F)c4)cc3)c(C)nc2cc1OCCN1CCCCC1	2.88 µM	–	3.64 µM	3.38	–	2.69 µM	–	1.56 µM	2.92 µM	1.69	3.27	1.27	2.69 µM	1.87 µM	–	–	1.79 µM	–	1.36 µM	1.46
O=C(CC1Sc2ccccc2NC1=O)Nc1cc(Cl)ccc1Cl (stereo not given)	> 100 µM	> 100 µM	> 100 µM	> 100	> 100 µM	> 100 µM	–	–	–	–	–	–	–	–	–	–	–	–	–	–
CC(=O)[O][Pb]([O]C(C)=O)([c]1ccccc1)[c]1ccccc1	> 100 µM	2.67 µM	3.75 µM	> 100	10 µM	> 100 µM	1.19 µM	–	–	–	–	–	–	1.73 µM	–	–	> 53.1 µM	4.69 µM	> 100 µM	> 35
CCOC(=O)c1c2c(n(CC(C)C)c1C)-c1nc[nH]c1C(=O)C2=O	28.2 µM	20.5 µM	34 µM	36.6	27.2 µM	29.9 µM	7.91 µM	18.2 µM	32.6 µM	–	–	–	–	19.4 µM	3.3	14.3	20.5 µM	14.2 µM	16.3 µM	15
O=C(NCCCCCCNC(=O)c1cccc2ccccc12)c1cccc2ccccc12	> 100 µM	44.3 µM	34.5 µM	36.9	53.8 µM	66.3 µM	–	–	–	–	–	–	–	–	–	–	–	–	–	–
CS(=O)(=O)CC1=Nc2nnc(CCCCCCCc3nnc4n3C(=O)C(CS(C)(=O)=O)=N4)n2C1=O	> 100 µM	> 100 µM	–	> 100	> 100 µM	> 100 µM	–	–	–	–	–	–	–	–	–	–	–	–	–	–
CC1=C2CCCC2C/C(=N/Nc2ccc([N+](=O)[O-])cc2[N+](=O)[O-])CC1 (stereo not given)	–	> 100 µM	> 100 µM	> 100	> 100 µM	> 100 µM	–	–	–	–	–	–	–	–	–	–	–	–	–	–
CCC[CH2][Sn]([CH2]CCC)([O]C(C)=O)[O]C(C)=O	4.94 µM	2.4 µM	1.95 µM	2.74	2.09 µM	3.13 µM	0.916 µM	–	–	–	–	–	–	0.542 µM	–	–	1.38 µM	0.888 µM	1.72 µM	1.84

Compound	TGI (EKVX NSCLC)	TGI (LOX IMVI melanoma)	TGI (SK-MEL-2 melanoma)	TGI (TK-10 renal) [µM]	TGI (U251 CNS)	TGI (UO-31 renal)	GI50 (LOX IMVI melanoma)	GI50 (MDA-MB-435)	TGI (MDA-MB-435)	GI50 (NCI/ADR-RES ovarian) [µM]	TGI (NCI/ADR-RES ovarian) [µM]	GI50 (PC-3 prostate) [µM]	TGI (PC-3 prostate)	GI50 (SK-MEL-2 melanoma)	GI50 (T-47D breast) [µM]	TGI (T-47D breast) [µM]	GI50 (TK-10 renal)	GI50 (U251 CNS)	GI50 (UO-31 renal)	GI50 (EKVX NSCLC) [µM]
COc1ccc(Cn2nc(-c3cc(OC)c(OC)c(OC)c3)c3c2CCc2cnoc2-3)cc1OC	–	> 100 µM	> 100 µM	> 100	> 100 µM	> 100 µM	3.02 µM	–	–	3.02	21.5	3.62	65.3 µM	6.06 µM	4.16	39.9	10.1 µM	4.97 µM	4.17 µM	–
O=C1C(Cl)=C(N/N=c2/[nH][nH]/c(=N/NC3=C(Cl)C(=O)c4ccccc4C3=O)c3ccccc23)C(=O)c2ccccc21	–	29.9 µM	35.9 µM	–	29.2 µM	25.9 µM	15.3 µM	17.8 µM	36.6 µM	21.4	73.2	8.64	28.7 µM	18.1 µM	6.71	36.8	–	15.4 µM	12.3 µM	–
CCc1ccc(NCc2cc(OC)c(OC)c(OC)c2)cc1	> 96.1 µM and 84.3 µM	25.7 µM and 43.8 µM	23.9 µM and > 54 µM	> 100	22.2 µM and 11.9 µM	55.8 µM and 62.6 µM	0.543 µM and 0.149 µM	0.0232 µM and 0.0172 µM	45.8 µM and 31.3 µM	–	–	–	53 µM and 18.7 µM	0.255 µM and 0.106 µM	–	74.5	24.6 µM and 10.7 µM	0.411 µM and 0.167 µM	1.37 µM and 3.95 µM	–
CCN1C(=O)N(CC)C2C1NN=c1s/c(=C3\C(=O)N(C(C)C)c4ccccc43)c(=O)n12 (stereo not given)	> 100 µM	> 100 µM	> 49.7 µM	> 69.4	> 57.7 µM	> 100 µM	0.463 µM	0.192 µM	0.487 µM	0.3	3.14	0.412	> 100 µM	1.24 µM	–	–	1.33 µM	0.378 µM	0.636 µM	0.606
CC(=O)/C(=C\c1ccco1)C(=O)Nc1ccccc1	> 100 µM	> 100 µM	> 100 µM	> 100	> 100 µM	> 100 µM	–	–	–	–	–	–	–	–	–	–	–	–	–	–
COC(=O)CCC(=O)N1Cc2cc(C)ccc2N(C(=O)CCC(=O)OC)Cc2cc(C)ccc21	> 100 µM	> 100 µM	> 100 µM	> 100	> 100 µM	> 100 µM	–	–	–	–	–	–	–	–	–	–	–	–	–	–
C=C1C(=O)O[C@H]2C[C@@H](C)[C@@H]3CC(=O)OC[C@@]3(C)CC12 (stereo not given in full)	> 100 µM	90.5 µM	> 100 µM	55.2	> 100 µM	> 100 µM	–	–	–	–	–	–	–	–	–	–	–	–	–	–
O=C1C/C(=C/c2ccc(/C=C3/CC(=O)N(c4cccc(Br)c4)C3=O)cc2)C(=O)N1c1cccc(Br)c1	> 100 µM	> 100 µM	> 100 µM	> 100	> 100 µM	> 100 µM	–	–	–	–	–	–	–	–	–	–	–	–	–	–
COc1cccc(OC(=O)c2ccccc2Nc2ccnc(C(F)(F)F)c2)c1	> 100 µM	10.4 µM	> 100 µM	37	11 µM	> 100 µM	1.07 µM	–	–	–	–	3.25	> 100 µM	34.4 µM	50.5	> 100	11.2 µM	2.86 µM	61.2 µM	6.62
CN(C)c1ccc2c(NCCCCCCNc3ccnc4cc(N(C)C)ccc34)ccnc2c1	> 100 µM	–	82.5 µM	32.2	24.3 µM	> 100 µM	–	–	–	–	–	–	–	–	–	–	–	–	–	–
COC12C=CC(CC1)c1c(O)ccc(O)c12 (stereo not given)	> 100 µM	–	> 76.3 µM	> 67.1	> 100 µM	> 100 µM	–	–	–	–	–	–	–	–	–	–	–	–	–	–
Cc1ccc2[nH]c(C(=O)NN3C(=O)CSC34CCCCC4C)c(-c3ccccc3)c2c1 (stereo not given)	33.8 µM	35.6 µM	38.7 µM	33.8	32.7 µM	30.9 µM	18.9 µM	17.9 µM	34.7 µM	–	–	12.5	30.1 µM	20.9 µM	16.3	40	17.5 µM	16.8 µM	15.5 µM	17
Cc1ccc(C(=O)Nc2ccc(S(=O)(=O)O)c3cc(S(=O)(=O)O)cc(S(=O)(=O)O)c23)cc1NC(=O)c1cccc(N)c1	> 100 µM	–	> 100 µM	> 100	> 100 µM	> 100 µM	–	–	–	–	> 100	–	> 100 µM	–	–	> 100	–	–	–	–
Cc1ccc2c(c1)C1(C)OC(CC(N)C1O)O2 (stereo not given)	> 100 µM	> 100 µM	> 100 µM	> 100	> 100 µM	> 100 µM	–	–	–	–	–	–	–	–	–	–	–	–	–	–
CC1CC2C(=O)NC(=O)C2c2[nH]c3ccccc3c21 (stereo not given)	> 100 µM	> 100 µM	> 100 µM	–	> 100 µM	> 100 µM	–	–	–	–	–	–	–	–	–	–	–	–	–	–
